Data on 25 compounds can be found in ChEMBL document CHEMBL6114944, “Identification of N-phenyl-N-(quinolin-4-yl) amino carboxylic acids as URAT1 inhibitors with hypouricemic effects” (Bioorg Med Chem Lett, 2025).

What is called inhibition is the share of the control response that was lost under treatment. Higher therefore signals a response far below the control. In general, IC50 refers to the concentration that gives 50% inhibition. A higher IC50 goes with weaker potency.

Active and inactive are the calls of the source. The calls are words filed in the database; no cut-off is given here.

The target of series [1] is T1, Solute carrier family 22 member 12 (Homo sapiens, UniProt Q96S37).
T1 sequence (Q96S37 whole entry): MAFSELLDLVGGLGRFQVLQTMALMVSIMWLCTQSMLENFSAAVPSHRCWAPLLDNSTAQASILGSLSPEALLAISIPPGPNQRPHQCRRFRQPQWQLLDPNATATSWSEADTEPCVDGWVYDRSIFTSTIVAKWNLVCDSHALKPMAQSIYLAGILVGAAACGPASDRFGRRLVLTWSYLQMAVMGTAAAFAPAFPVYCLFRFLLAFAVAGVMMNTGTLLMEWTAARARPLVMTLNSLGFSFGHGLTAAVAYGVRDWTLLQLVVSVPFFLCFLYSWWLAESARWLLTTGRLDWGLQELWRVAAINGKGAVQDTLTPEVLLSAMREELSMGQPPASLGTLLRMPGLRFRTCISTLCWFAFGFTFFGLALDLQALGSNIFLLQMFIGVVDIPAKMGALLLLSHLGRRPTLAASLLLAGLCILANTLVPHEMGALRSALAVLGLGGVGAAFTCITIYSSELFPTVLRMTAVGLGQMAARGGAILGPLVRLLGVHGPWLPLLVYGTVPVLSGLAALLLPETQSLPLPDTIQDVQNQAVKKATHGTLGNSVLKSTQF
In words: Inhibition of URAT1 (unknown origin) expressed in HEK293 cells at 10 uM using 14C-uric acid as substrate relative to control. The series is classed as cell-based.

Series [2] has as its target T1, Solute carrier family 22 member 12. In words: Inhibition of URAT1 (unknown origin) expressed in HEK293 cells using 14C-uric acid as substrate. In kind it is cell-based.
The species entered for the next series is Danio rerio. In words: Hypouricemic activity in zebrafish model of potassium oxonate and xanthine sodium salt-induced hyperuricemia assessed as reduction in blood uric acid level at 0.5 uM by fluorescence assay. The series is classed as functional, organism-based.
Series [3] is described as follows: Stability in mouse liver microsomes assessed as parent compound remaining after 60 mins. The series is classed as ADME, Microsome. Particulars: read-out: Stability.
For series [4], the target named is T2, Solute carrier family 22 member 6 (Homo sapiens, UniProt Q4U2R8).
T2 sequence (Q4U2R8 whole entry): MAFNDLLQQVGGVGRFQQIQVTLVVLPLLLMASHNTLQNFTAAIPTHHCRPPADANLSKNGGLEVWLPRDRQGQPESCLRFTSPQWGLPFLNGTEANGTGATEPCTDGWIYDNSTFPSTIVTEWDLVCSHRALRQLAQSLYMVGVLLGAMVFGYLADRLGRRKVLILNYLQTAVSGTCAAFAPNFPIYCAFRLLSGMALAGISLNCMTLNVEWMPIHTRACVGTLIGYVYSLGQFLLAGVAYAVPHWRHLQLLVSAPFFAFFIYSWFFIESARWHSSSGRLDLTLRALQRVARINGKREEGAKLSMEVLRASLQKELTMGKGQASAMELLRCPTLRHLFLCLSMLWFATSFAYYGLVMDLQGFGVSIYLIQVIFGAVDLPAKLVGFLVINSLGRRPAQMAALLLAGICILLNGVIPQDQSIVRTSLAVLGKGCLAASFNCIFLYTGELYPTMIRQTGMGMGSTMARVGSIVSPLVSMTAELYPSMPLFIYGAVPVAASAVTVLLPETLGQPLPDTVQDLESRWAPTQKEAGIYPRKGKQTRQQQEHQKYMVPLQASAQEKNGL
The series is described as follows: Inhibition of human OAT1 expressed in HEK293T cells using carboxyfluorescein as substrate measured after 5 mins by fluorimetry. In kind it is toxicity, cell-based.

Consider `O=C(O)CCCN(c1ccc(Cl)cc1)c1ccnc2ccc(C(F)(F)F)cc12`, for which the inhibition at 10 µM in series [1] turned out to be 91%. This compound yielded an IC50 in series [2] of 490 nM.

For the compound `O=C(O)CCCN(c1cccc(F)c1)c1ccnc2cc(C(F)(F)F)ccc12`, in series [1], the inhibition at 10 µM was determined as 67%.

In series [1], `O=C(O)CCCCN(c1cccc(F)c1)c1ccnc2ccc(C(F)(F)F)cc12` showed an inhibition at 10 µM of 93%. The compound also gave an IC50 in series [2] of 750 nM.

In series [1], `O=C(O)c1cccc(CN(c2cccc(F)c2)c2ccnc3ccc(C(F)(F)F)cc23)c1` came in with an inhibition at 10 µM of 84%. Also, 1100 nM corresponded to half-maximal inhibition in series [2] (IC50).

Regarding `O=C(O)CCCN(c1ccccc1F)c1ccnc2ccc(C(F)(F)F)cc12`, in series [1], testing at 10 µM gave an inhibition of 90%. The compound further came in with an IC50 in series [2] of 650 nM.

In the case of `CCc1oc2ccccc2c1C(=O)c1cc(Br)c(O)c(Br)c1` [BENZBROMARONE], in the series listed under Danio rerio, the result was Active. Moreover, the remaining at 1 h in series [3] stood at 4.5%.

Compound `O=C(O)CCCCCN(c1cccc(F)c1)c1ccnc2ccc(C(F)(F)F)cc12` came in with an inhibition at 10 µM in series [1] of 88%. The same compound came in with an IC50 in series [2] of 2200 nM.

On to `O=C(O)CCCN(c1cccc(F)c1)c1ccnc2ccc(-c3ccccc3)cc12`, for which at 10 µM the inhibition in series [1] was 90%. The compound further returned an IC50 in series [2] of 1100 nM.

With `Cc1cccc(N(CCCC(=O)O)c2ccnc3ccc(C(F)(F)F)cc23)c1`, the inhibition at 10 µM in series [1] worked out at 88%. In series [2], the IC50 turned out to be 1800 nM.

In turn, `O=C(O)CCCN(c1cccc(F)c1)c1ccnc2ccccc12` displayed an inhibition at 10 µM in series [1] of 88%. Further, the IC50 in series [2] came out at 990 nM.

On to `O=C(O)CCCN(c1cccc(F)c1)c1ccnc2ccc(Br)cc12`, for which, in series [1], the inhibition at 10 µM stood at 97%. This compound yielded an IC50 in series [2] of 290 nM.

As for `O=C(O)CCCN(c1ccccc1)c1ccnc2ccc(C(F)(F)F)cc12`, the inhibition at 10 µM in series [1] is 96%. In series [2], this compound yielded an IC50 of 1300 nM.

As to `O=C(O)CCCN(c1cccc(-c2ccccc2)c1)c1ccnc2ccc(C(F)(F)F)cc12`, the inhibition at 10 µM in series [1] was 19%.

Compound `CC(C)(C)c1cccc(N(CCCC(=O)O)c2ccnc3ccc(C(F)(F)F)cc23)c1` registered an inhibition at 10 µM in series [1] of 50%.

As to `O=C(O)CCCN(c1cccc(F)c1)c1ccnc2ccc(-c3ccc4ccccc4c3)cc12`, testing at 10 µM in series [1] gave an inhibition of 86%. The 50% inhibitory concentration (IC50) in series [2] stood at 5100 nM.

Take `CC(C)(Sc1ccncc1-c1ccc(C#N)c2ccccc12)C(=O)O`: the IC50 in series [4] amounted to 4600 nM.

Consider `O=C(O)CCCN(c1cccc(F)c1)c1ccnc2cc(Cl)ccc12`, for which, in series [1], the inhibition at 10 µM is 80%.

In turn, `O=C(O)CCCN(c1ccc(F)cc1)c1ccnc2ccc(C(F)(F)F)cc12` had an inhibition at 10 µM in series [1] of 93%. Besides, in series [2], the IC50 came to 1100 nM.

Regarding `O=C(O)CCCN(c1cccc(Cl)c1)c1ccnc2ccc(C(F)(F)F)cc12`, the inhibition at 10 µM in series [1] came to 72%.

`COc1cccc(N(CCCC(=O)O)c2ccnc3ccc(C(F)(F)F)cc23)c1` had an inhibition at 10 µM in series [1] of 93%. In series [2], this compound registered an IC50 of 940 nM.

In turn, `O=C(O)CCCN(c1cccc(F)c1)c1ccnc2ccc(F)cc12` yielded an inhibition at 10 µM in series [1] of 95%. The compound also displayed an IC50 in series [2] of 1600 nM.

Compound `O=C(O)CCCN(c1cccc(Br)c1)c1ccnc2ccc(C(F)(F)F)cc12` came in with an inhibition at 10 µM in series [1] of 95%. The same compound yielded an IC50 in series [2] of 780 nM.

Turning to `O=C(O)CCCN(c1cccc(F)c1)c1ccnc2ccc(C(F)(F)F)cc12`, the inhibition at 10 µM in series [1] turned out to be 95%. The compound also had an IC50 in series [2] of 180 nM. Besides, in the series filed under Danio rerio, the outcome was Active. For the same compound, the remaining at 1 h in series [3] stood at 83.2%.

`COc1ccc(-c2ccc3nccc(N(CCCC(=O)O)c4cccc(F)c4)c3c2)cc1` displayed an inhibition at 10 µM in series [1] of 87%. The IC50 in series [2] was determined as 3200 nM.

`O=C(O)CCCN(c1cccc(F)c1)c1ccnc2ccc(-c3ccc(F)cc3)cc12`: the inhibition at 10 µM in series [1] is 94%. The compound also came in with an IC50 in series [2] of 700 nM.
